According to PubChem BioAssay (NCI):
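How tested: cells in 96-well plates exposed to compound for 48 hours at five concentrations. TGI: total growth inhibition.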

What was measured:
Experiment in all cases: NCI-60 cell line screen, 48 h
[1] = tested on: A498 renal
[2] = tested on: BT-549 breast
[3] = tested on: CCRF-CEM leukemia
[4] = tested on: EKVX NSCLC
[5] = tested on: HCC-2998 colon
[6] = tested on: HL-60(TB) leukemia
[7] = tested on: HOP-92 NSCLC
[8] = tested on: HT29 colon
[9] = tested on: NCI-H460 lung
[10] = tested on: NCI/ADR-RES ovarian
[11] = tested on: OVCAR-8 ovarian
[12] = tested on: SK-MEL-2 melanoma
[13] = tested on: T-47D breast
[14] = tested on: UACC-257 melanoma

O=C(CSc1nc2ccccc2c(=O)n1-c1ccccc1)N=Nc1c(O)[nH]c2ccc(Br)cc12
TGI [1]: 40.8 µM | TGI [2]: > 59.6 µM | TGI [3]: > 100 µM | TGI [4]: 9.83 µM | TGI [5]: > 100 µM | TGI [6]: 12.8 µM | TGI [7]: 7.76 µM | TGI [8]: 3.7 µM | TGI [9]: 41.8 µM | TGI [10]: 22.9 µM | TGI [11]: 3.99 µM | TGI [12]: 47.1 µM | TGI [13]: 28.6 µM | TGI [14]: 52 µM

O=C(Nc1ccc(Cl)cc1)c1cc(S(=O)(=O)Nc2nc3ncccc3[nH]2)c(SSc2cc(Cl)c(C(=O)Nc3ccc(Cl)cc3)cc2S(=O)(=O)Nc2nc3ncccc3[nH]2)cc1Cl
TGI [1]: > 100 µM | TGI [2]: > 100 µM | TGI [3]: > 100 µM | TGI [4]: > 100 µM | TGI [5]: > 100 µM | TGI [6]: > 100 µM | TGI [7]: > 100 µM | TGI [8]: > 100 µM | TGI [9]: > 100 µM | TGI [10]: > 100 µM | TGI [11]: > 100 µM | TGI [12]: > 100 µM | TGI [13]: > 100 µM | TGI [14]: > 100 µM

Cc1cc2c(cc1Cl)SSc1cc(Cl)c(C)cc1S(=O)(=O)Nc1nc(N)nn1C(O)n1nc(N)nc1NS2(=O)=O
TGI [1]: > 10 µM | TGI [2]: > 10 µM | TGI [3]: > 10 µM | TGI [4]: > 10 µM | TGI [5]: > 10 µM | TGI [6]: > 10 µM | TGI [7]: > 10 µM | TGI [8]: > 10 µM | TGI [9]: > 10 µM | TGI [10]: > 10 µM | TGI [11]: > 10 µM | TGI [12]: > 10 µM | TGI [13]: > 10 µM | TGI [14]: > 10 µM

CCOC(=O)Cn1nnc2ccc(Nc3nc4ccccc4nc3C(=O)OCC)cc21
TGI [1]: > 100 µM | TGI [2]: > 100 µM | TGI [3]: > 100 µM | TGI [4]: > 100 µM | TGI [5]: > 100 µM | TGI [6]: > 100 µM | TGI [7]: > 100 µM | TGI [8]: > 100 µM | TGI [9]: > 100 µM | TGI [10]: > 100 µM | TGI [11]: > 100 µM | TGI [12]: > 100 µM | TGI [13]: > 100 µM | TGI [14]: > 100 µM

CCCCOc1ccc(/C=C/C2=[N+](CCO)CCO2)cc1
TGI [1]: > 100 µM | TGI [2]: > 100 µM | TGI [3]: 67.1 µM | TGI [4]: > 100 µM | TGI [5]: 48.3 µM | TGI [6]: 40.2 µM | TGI [7]: > 100 µM | TGI [8]: 31.4 µM | TGI [9]: > 100 µM | TGI [10]: > 100 µM | TGI [11]: > 100 µM | TGI [12]: > 100 µM | TGI [13]: 82.8 µM | TGI [14]: > 100 µM

c1ccc(CCCN2C3CCC2CN(CCOC(c2ccccc2)c2ccccc2)C3)cc1
TGI [1]: 21.8 µM | TGI [2]: 24.9 µM | TGI [3]: 39.2 µM | TGI [4]: 19.9 µM | TGI [5]: 18 µM | TGI [6]: 23.1 µM | TGI [7]: 25.5 µM | TGI [8]: 14.8 µM | TGI [9]: 25.8 µM | TGI [10]: 21.3 µM | TGI [11]: 23.5 µM | TGI [12]: 22.9 µM | TGI [13]: 13.9 µM | TGI [14]: 20.8 µM

O=c1[nH]c2c(C(F)(F)F)c(Cl)c(-c3ccccc3)nc2o1
TGI [1]: > 100 µM | TGI [2]: 60.3 µM | TGI [3]: 34 µM | TGI [4]: 41.6 µM | TGI [5]: > 100 µM | TGI [6]: 13.7 µM | TGI [7]: 75.7 µM | TGI [8]: 51.6 µM | TGI [9]: 69.8 µM | TGI [10]: 67.2 µM | TGI [11]: > 100 µM | TGI [12]: 52.7 µM | TGI [13]: 90.9 µM | TGI [14]: 59.9 µM

O=S(=O)(O)c1cc(O)c(N=NC2S(=O)(=O)OCCOS2(=O)=O)c2ccccc12
TGI [1]: > 100 µM | TGI [2]: > 100 µM | TGI [3]: > 100 µM | TGI [4]: > 100 µM | TGI [5]: > 100 µM | TGI [6]: > 100 µM | TGI [7]: > 100 µM | TGI [8]: > 100 µM | TGI [9]: > 100 µM | TGI [10]: > 100 µM | TGI [11]: > 100 µM | TGI [12]: > 100 µM | TGI [13]: > 100 µM | TGI [14]: > 100 µM

CCN(CC)C1=Nc2ccccc2-n2ccnc2C1
TGI [1]: > 100 µM | TGI [2]: > 100 µM | TGI [3]: > 100 µM | TGI [4]: > 100 µM | TGI [5]: > 100 µM | TGI [6]: > 100 µM | TGI [7]: > 100 µM | TGI [8]: > 100 µM | TGI [9]: > 100 µM | TGI [10]: > 100 µM | TGI [11]: > 100 µM | TGI [12]: > 100 µM | TGI [13]: > 100 µM | TGI [14]: > 100 µM

COc1cc2ncnc(Nc3cccc(Br)c3)c2cc1OC
TGI [1]: 29.4 µM | TGI [2]: > 50.8 µM | TGI [3]: > 89.8 µM | TGI [4]: 31.9 µM | TGI [5]: 10.2 µM | TGI [6]: > 75.2 µM | TGI [7]: 36.3 µM | TGI [8]: 18.8 µM | TGI [9]: 21.1 µM | TGI [10]: 23.9 µM | TGI [11]: > 35.1 µM | TGI [12]: 12.9 µM | TGI [13]: 48 µM | TGI [14]: > 40.9 µM

CCCCOC(=O)Nc1ccc(S(=O)(=O)Nc2c(Cl)cccc2Cl)cc1
TGI [1]: 63.1 µM | TGI [2]: 60.7 µM | TGI [3]: > 100 µM | TGI [4]: 71.6 µM | TGI [5]: 43.4 µM | TGI [6]: > 100 µM | TGI [7]: 75.7 µM | TGI [8]: 32 µM | TGI [9]: > 100 µM | TGI [10]: 65.8 µM | TGI [11]: 64.6 µM | TGI [12]: 66.8 µM | TGI [13]: 83.8 µM | TGI [14]: > 100 µM

O=[N+]([O-])C1=Cc2c(O)ccc(O)c2C2OC=CC12 (stereo not drawn)
TGI [1]: 30.1 µM | TGI [2]: 27.9 µM | TGI [3]: > 26.8 µM | TGI [4]: 36.8 µM | TGI [5]: > 57.8 µM | TGI [6]: > 30.4 µM | TGI [7]: 58.8 µM | TGI [8]: 43.8 µM | TGI [9]: 38.2 µM | TGI [10]: 55.9 µM | TGI [11]: > 56.2 µM | TGI [12]: 41 µM | TGI [13]: > 71.9 µM | TGI [14]: 29.9 µM

Cn1c2ccccc2n2c(=O)c(-c3ccc(Cl)cc3)nnc12
TGI [1]: > 100 µM | TGI [2]: > 100 µM | TGI [3]: > 100 µM | TGI [4]: > 100 µM | TGI [5]: > 100 µM | TGI [6]: > 100 µM | TGI [7]: > 100 µM | TGI [8]: > 100 µM | TGI [9]: > 100 µM | TGI [10]: > 100 µM | TGI [11]: > 100 µM | TGI [12]: > 100 µM | TGI [13]: > 100 µM | TGI [14]: > 100 µM

N#C/C=C(/NC(=O)Nc1ccccc1)N1CCCC1
TGI [1]: > 100 µM | TGI [2]: > 100 µM | TGI [3]: > 100 µM | TGI [4]: > 97 µM | TGI [5]: > 53 µM | TGI [6]: > 100 µM | TGI [7]: > 62.2 µM | TGI [8]: > 100 µM | TGI [9]: > 55.4 µM | TGI [10]: > 61.5 µM | TGI [11]: > 51.8 µM | TGI [12]: > 52.6 µM | TGI [13]: > 100 µM | TGI [14]: > 100 µM

Fc1ccc(F)c(C=NC23CC4CC(CC(C4)C2)C3)c1
TGI [1]: > 10 µM | TGI [2]: > 10 µM | TGI [3]: > 10 µM | TGI [4]: > 10 µM | TGI [5]: > 10 µM | TGI [6]: 6.94 µM | TGI [7]: > 10 µM | TGI [8]: > 10 µM | TGI [9]: > 10 µM | TGI [10]: > 10 µM | TGI [11]: > 10 µM | TGI [12]: > 10 µM | TGI [13]: > 10 µM | TGI [14]: > 10 µM

CC(=O)N1N=C(c2ccccc2)NC(=O)C1c1cc(C)c(O)c(C)c1 (stereo not drawn)
TGI [1]: 67.2 µM | TGI [2]: 54.1 µM | TGI [3]: > 100 µM | TGI [4]: 93.6 µM | TGI [5]: 45.9 µM | TGI [6]: > 100 µM | TGI [7]: 38.8 µM | TGI [8]: > 100 µM | TGI [9]: > 100 µM | TGI [10]: 47.7 µM | TGI [11]: 31.4 µM | TGI [12]: 72.2 µM | TGI [13]: 42 µM | TGI [14]: 96.7 µM

C[C@]12CCC(=O)C=C1CC[C@@H]1[C@@H]2CC[C@]2(C)C(=O)/C(=C/c3ccc([N+](=O)[O-])cc3)C[C@@H]12
TGI [1]: 48.9 µM | TGI [2]: > 100 µM | TGI [3]: > 100 µM | TGI [4]: > 100 µM | TGI [5]: > 100 µM | TGI [6]: > 100 µM | TGI [7]: > 100 µM | TGI [8]: > 100 µM | TGI [9]: > 100 µM | TGI [10]: > 100 µM | TGI [11]: > 100 µM | TGI [12]: > 100 µM | TGI [13]: > 100 µM | TGI [14]: > 100 µM
